According to patent publication US9556181B2, “Substituted pyrazolopyrimidinylamino-indazoles” (BAYER PHARMA AKTIENGESELLSCHAFT, priority 2013, dated 2017):

The molecules below were run against human full-length MKNK1 (Homo sapiens (Human), UniProt Q9BUB5, T344D) (assay: MKNK1 kinase high ATP assay (TR-FRET)). Settings: high ATP (2 mM final), 15 min preincubation with enzyme.
Type: biochemical
Procedure: MKNK1 Kinase High ATP Assay
MKNK1-inhibitory activity at high ATP of compounds of the present invention after their preincubation with MKNK1 was quantified employing the TR-FRET-based MKNK1 high ATP assay as described in the following paragraphs.
A recombinant fusion protein of Glutathione-S-Transferase (GST, N-terminally) and human full-length MKNK1 (amino acids 1-424 and T344D of accession number BAA 19885.1), expressed in insect cells using baculovirus expression system and purified via glutathione sepharose affinity chromatography, was purchased from Carna Biosciences (product no 02-145) and used as enzyme. As substrate for the kinase reaction the biotinylated peptide biotin-Ahx-IKKRKLTRRKSLKG (C-terminus in amide form) was used, which can be purchased e.g. from the company Biosyntan (Berlin-Buch, Germany).
For the assay 50 nL of a 100 fold concentrated solution of the test compound in DMSO was pipetted into a black low volume 384 well microtiter plate (Greiner Bio-One, Frickenhausen, Germany), 2 μL of a solution of MKNK1 in aqueous assay buffer [50 mM HEPES pH 7.5, 5 mM MgCl2, 1.0 mM dithiothreitol, 0.005% (v/v) Nonidet-P40 (Sigma)] was added and the mixture was incubated for 15 min at 22° C. to allow pre-binding of the test compounds to the enzyme before the start of the kinase reaction. Then the kinase reaction was started by the addition of 3 μL of a solution of adenosine-tri-phosphate (ATP, 3.3 mM=>final conc. in the 5 μL assay volume is 2 mM) and substrate (0.1 μM=>final conc. in the 5 μL assay volume is 0.06 μM) in assay buffer and the resulting mixture was incubated for a reaction time of 30 min at 22° C. The concentration of MKNK1 was adjusted depending of the activity of the enzyme lot and was chosen appropriate to have the assay in the linear range, typical concentrations were in the range of 0.003 μg/mL. The reaction was stopped by the addition of 5 μL of a solution of TR-FRET detection reagents (5 nM streptavidine-XL665 [Cisbio Bioassays, Codolet, France] and 1 nM anti-ribosomal protein S6 (pSer236)-antibody from Invitrogen [#44921G] and 1 nM LANCE EU-W1024 labeled ProteinG [Perkin-Elmer, product no. AD0071]) in an aqueous EDTA-solution (100 mM EDTA, 0.1% (w/v) bovine serum albumin in 50 mM HEPES pH 7.5).
The resulting mixture was incubated for 1 h at 22° C. to allow the formation of complex between the phosphorylated biotinylated peptide and the detection reagents. Subsequently the amount of phosphorylated substrate was evaluated by measurement of the resonance energy transfer from the Eu-chelate to the streptavidine-XL. Therefore, the fluorescence emissions at 620 nm and 665 nm after excitation at 350 nm were measured in a TR-FRET reader, e.g. a Rubystar (BMG Labtechnologies, Offenburg, Germany) or a Viewlux (Perkin-Elmer). The ratio of the emissions at 665 nm and at […] was taken as the measure for the amount of phosphorylated substrate. The data were normalised (enzyme reaction without inhibitor=0% inhibition, all other assay components but no enzyme=100% inhibition).

Chain of human full-length MKNK1 (Q9BUB5 other isoform, or with tags, fused parts or gaps T344D): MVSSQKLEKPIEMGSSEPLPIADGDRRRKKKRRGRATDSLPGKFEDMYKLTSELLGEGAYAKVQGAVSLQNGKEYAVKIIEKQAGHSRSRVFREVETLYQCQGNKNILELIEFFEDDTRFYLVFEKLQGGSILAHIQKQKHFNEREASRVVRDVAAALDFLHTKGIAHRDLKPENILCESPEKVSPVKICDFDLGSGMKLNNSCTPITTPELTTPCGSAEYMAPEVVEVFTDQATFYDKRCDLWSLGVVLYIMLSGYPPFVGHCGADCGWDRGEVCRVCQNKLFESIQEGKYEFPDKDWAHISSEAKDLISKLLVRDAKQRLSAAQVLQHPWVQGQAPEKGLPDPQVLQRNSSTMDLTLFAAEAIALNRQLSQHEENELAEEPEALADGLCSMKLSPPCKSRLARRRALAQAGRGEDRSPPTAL

Compound	IC50
c1nc(Nc2ccc3[nH]ncc3c2)c2cn[nH]c2n1 [Example 1, N-(1H-Indazol-5-yl)-1H-pyrazolo[3,4-d]pyrimidin-4-amine]	117 nM
CC(C)Oc1cc2[nH]ncc2cc1Nc1ncnc2[nH]ncc12 [Example 3, N-[6-(Propan-2-yloxy)-1H-indazol-5-yl]-1H-pyrazolo[3,4-d]pyrimidin-4-amine]	531 nM
COc1cc2[nH]ncc2cc1Nc1ncnc2[nH]nc(Br)c12 [Example 4, 3-Bromo-N-(6-methoxy-1H-indazol-5-yl)-1H-pyrazolo[3,4-d]pyrimidin-4-amine]	1 nM
Fc1cc2[nH]ncc2cc1Nc1ncnc2[nH]nc(Br)c12 [Example 5, 3-Bromo-N-(6-fluoro-1H-indazol-5-yl)-1H-pyrazolo[3,4-d]pyrimidin-4-amine]	12 nM
Brc1n[nH]c2ncnc(Nc3ccc4[nH]ncc4c3)c12 [Example 6, 3-Bromo-N-(1H-indazol-5-yl)-1H-pyrazolo[3,4-d]pyrimidin-4-amine]	14 nM
COc1cc2[nH]ncc2cc1Nc1ncnc2[nH]nc(-c3ccccc3)c12 [Example 7, N-(6-methoxy-1H-indazol-5-yl)-3-phenyl-1H-pyrazolo[3,4-d]pyrimidin-4-amine]	3 nM
Fc1cc2[nH]ncc2cc1Nc1ncnc2[nH]nc(-c3ccccc3)c12 [Example 8, N-(6-fluoro-1H-indazol-5-yl)-3-phenyl-1H-pyrazolo[3,4-d]pyrimidin-4-amine]	15 nM
c1cncc(-c2n[nH]c3ncnc(Nc4ccc5[nH]ncc5c4)c23)c1 [Example 9, N-(1H-Indazol-5-yl)-3-(pyridin-3-yl)-1H-pyrazolo[3,4-d]pyrimidin-4-amine]	8 nM
COc1cc2[nH]ncc2cc1Nc1ncnc2[nH]nc(-c3cccnc3)c12 [Example 10, N-(6-Methoxy-1H-indazol-5-yl)-3-(pyridin-3-yl)-1H-pyrazolo[3,4-d]pyrimidin-4-amine]	6 nM
Fc1cc2[nH]ncc2cc1Nc1ncnc2[nH]nc(-c3cccnc3)c12 [Example 11, N-(6-fluoro-1H-indazol-5-yl)-3-(pyridin-3-yl)-1H-pyrazolo[3,4-d]pyrimidin-4-amine]	8 nM
Fc1ccc(-c2n[nH]c3ncnc(Nc4ccc5[nH]ncc5c4)c23)cc1 [Example 12, 3-(4-Fluorophenyl)-N-(1H-indazol-5-yl)-1H-pyrazolo[3,4-d]pyrimidin-4-amine]	12 nM
COc1cc2[nH]ncc2cc1Nc1ncnc2[nH]nc(-c3ccc(F)cc3)c12 [Example 13, 3-(4-Fluorophenyl)-N-(6-methoxy-1H-indazol-5-yl)-1H-pyrazolo[3,4-d]pyrimidin-4-amine]	2 nM
Fc1ccc(-c2n[nH]c3ncnc(Nc4cc5cn[nH]c5cc4F)c23)cc1 [Example 14, N-(6-Fluoro-1H-indazol-5-yl)-3-(4-fluorophenyl)-1H-pyrazolo[3,4-d]pyrimidin-4-amine]	12 nM
c1ccc(-c2n[nH]c3ncnc(Nc4ccc5[nH]ncc5c4)c23)cc1 [Example 15, N-(1H-Indazol-5-yl)-3-phenyl-1H-pyrazolo[3,4-d]pyrimidin-4-amine]	26 nM
COc1cc2[nH]ncc2cc1Nc1ncnc2[nH]nc(-c3ccncc3)c12 [Example 16, N-(6-Methoxy-1H-indazol-5-yl)-3-(pyridin-4-yl)-1H-pyrazolo[3,4-d]pyrimidin-4-amine]	2 nM
CC(C)Oc1cc2[nH]ncc2cc1Nc1ncnc2[nH]nc(Br)c12 [Example 17, 3-Bromo-N-(6-isopropoxy-1H-indazol-5-yl)-1H-pyrazolo[3,4-d]pyrimidin-4-amine]	1 nM
CC(C)Oc1cc2[nH]ncc2cc1Nc1ncnc2[nH]nc(-c3ccccc3)c12 [Example 18, N-(6-Isopropoxy-1H-indazol-5-yl)-3-phenyl-1H-pyrazolo[3,4-d]pyrimidin-4-amine]	19 nM
CC(C)Oc1cc2[nH]ncc2cc1Nc1ncnc2[nH]nc(-c3ccc(F)cc3)c12 [Example 19, 3-(4-Fluorophenyl)-N-(6-isopropoxy-1H-indazol-5-yl)-1H-pyrazolo[3,4-d]pyrimidin-4-amine]	26 nM
CC(C)Oc1cc2[nH]ncc2cc1Nc1ncnc2[nH]nc(-c3cccnc3)c12 [Example 20, N-(6-Isopropoxy-1H-indazol-5-yl)-3-(pyridin-3-yl)-1H-pyrazolo[3,4-d]pyrimidin-4-amine]	63 nM
CC(C)Oc1cc2[nH]ncc2cc1Nc1ncnc2[nH]nc(-c3ccncc3)c12 [Example 21, N-(6-Isopropoxy-1H-indazol-5-yl)-3-(pyridin-4-yl)-1H-pyrazolo[3,4-d]pyrimidin-4-amine]	27 nM
